Reference: a melting point compilation (Tetko et al.; mined from patent text by program, amines drawn as free bases though some values may be those of a salt)

| melting point [°C] | SMILES |
| --- | --- |
| 88 to 89 | C=CCNC(=O)N1CC(Sc2ccc(Cl)cc2)C1 |
| 31 to 35 | COC(=O)C#CC(=O)c1ccccc1 |
| > 285 | O=C(NN=Cc1ccccc1O)c1cc2ccccc2cc1O |
| 160 to 162 | CC(C)(C)N(NC(=S)c1ccc(Cl)cc1)C(=O)c1ccccc1 |
| 197 | O=c1c2ccccc2oc2cc(OCC3CO3)cc(O)c12 (stereo unspecified) |
| 150 to 155 | O=C(NC(Cc1ccc(OCc2ccccc2)cc1)C(=O)NC1C(C(=O)O)OC(n2cnc3c(NC(=O)c4ccccc4)ncnc32)C1O)OCc1ccccc1 (stereo unspecified) |
| 218 to 220 | O=C1CC2(C(=O)N1)C(=O)N(Cc1ccc(Br)cc1F)c1ccccc12 (stereo unspecified) |
| 164 to 166 | CCC1c2cccn2-c2ccc(F)cc2N1S(=O)(=O)c1ccc(OC)c(C)c1 (stereo unspecified) |
| 117 to 119 | OCC1(CO)COC2(CCCCC2)N1 |
| 130 to 131 | COC(=O)C1=C[C@@H](OC(C)C)[C@H](NC(C)=O)[C@@H](CC2CO2)C1 (stereo partly specified) |
| 164 | CNC(=O)n1sc(N(C)C)nc1=O |
| 139 to 141 | CCc1oc(-c2ccc(C(F)(F)F)cc2)cc1CCC(=O)Nc1cccc(CSCC(=O)O)c1 |
| 271 | Cc1ccc2c(c1)C=Cc1cc(C)ccc1C2c1cn(-c2ncc(C(=O)O)c(NCC(=O)O)n2)c(=O)[nH]c1=O |
| 155 to 158 | O=C(O)COc1c(Cl)cc(F)cc1Cl |
| 129 to 131 | COc1ccccc1SCc1c(C(C)C)nc(C(C)C)c(CO)c1-c1ccc(F)cc1 |
| 83 to 84 | CCOC(=O)COc1ccc(NS(C)(=O)=O)cc1C |
| 185 to 194 | OC1OC2CC3CC(C2)OC1O3 (stereo unspecified) |
| 53 to 55 | FC(F)(F)c1ccc(-c2cc(Cl)c3ccccc3n2)cc1 |
| 196 to 197 | Cc1cc(NS(=O)(=O)c2ccc(S(N)(=O)=O)cc2)c2[nH]cc(Br)c2c1 |
| 232 to 235 | N#Cc1c[nH]c2cc(N3CCC(N4CCCC4)CC3)c([N+](=O)[O-])cc2c1=O |
| 158 | COc1ccc(-n2nc(-c3c(-c4ccccc4)nn4ccccc34)ccc2=O)cc1 |
| 85 | CN(C(=O)CN(C(=O)CNC(=O)Nc1cccc(/C=C/CO)c1)c1ccccc1)c1ccccc1 |
| 248 to 250 | Cn1cccc1C1=C(c2cn(C)c3ccccc23)C(=O)NC1=O |
| 135 to 137 | O=C(c1c(F)cccc1F)N1CNCN(c2ccc(Oc3ccc(C(F)(F)F)cc3Cl)cc2F)C1=O |

| melting point [°C] | SMILES |
| --- | --- |
| 93 to 95 | COc1cc(C(C)=O)ccc1OCCCN1CCC(c2nsc3ccccc23)CC1 |
| 127 to 129 | Clc1ccccc1-c1nc(Cl)c2ccccc2n1 |
| 90 to 92 | O=C(O)c1nc(Oc2cccc(C(F)(F)F)c2)ccc1Cl |
| 121 to 123 | Cc1nn(-c2c(Cl)cc(C(F)(F)F)cc2Cl)c(N)c1C#C[Si](C)(C)C |
| 126 to 128 | CCOC(=O)NNc1nc2ccccc2n2cnc(C(=O)OCC)c12 |
| 153 to 155 | COc1ccc(CCNC(=O)CCCCC(=O)NCCc2ccc(OC)c(OC)c2CCc2cccc(OC)c2)cc1 |
| 116 | COc1ccc2cc(C(Br)Br)ccc2c1 |
| 103 to 111 | CCn1nnnc1C(CO)=C(c1ccc(F)cc1)c1ccc(F)cc1 |
| 63 to 64 | Cc1cc(C2CC(C)(C)CC(C)(C)C2=O)ccc1F (stereo unspecified) |
| 109 to 110 | CC(C)Nc1ccccc1C(=O)O |
| 205 to 206 | CC(C)S(=O)(=O)c1cccc(-c2nc(=O)c3ccccc3s2)n1 |
| 169 to 170 | CC(=O)OC1CSC(Oc2cncc(-c3cccnc3F)c2)C(OC(C)=O)C1OC(C)=O (stereo unspecified) |
| 137 to 138 | O=C1OC(OC(=O)c2cccnc2Cl)c2ccccc21 (stereo unspecified) |
| 147 to 149 | COC(=O)CC(O)(c1ccccc1)c1ccc2nc(N)n(S(=O)(=O)C(C)C)c2c1 (stereo unspecified) |
| 88 to 90 | CCCc1nn(C)c2c(=O)n(CCNc3ccc(OC(C)(C)C(=O)O)cc3)c(C)nc12 |
| 58.5 to 60.5 | CS(=O)c1ccc(C(=O)CCCCCC#N)cc1 (stereo unspecified) |
| 94 | Cc1c(CCBr)c2cccc3c2n1CCS3 |
| 290 to 292 | Cc1cccc2c1C(=O)N(C1CCC(=O)NC1=O)C2=O (stereo unspecified) |
| 220 | Cc1ccc2[nH]c3c(c2c1)CC(C)n1c-3nc2c(c1=O)CCCC2 (stereo unspecified) |
| 106 to 108 | CC(=O)c1ccc2c(c1)C(N1CCCC1=O)=CC(C)(C)O2 |
| 134 to 135 | O=C1c2ccccc2C(=O)N1CCc1ccc(C(F)(F)F)cc1 |
| 86 to 88 | COc1cccc(C(F)(F)F)c1S(=O)(=O)Cl |
| 173 to 175 | Cc1ccc(C(=O)NCC(O)CO)cc1-n1c(C)cc(OCc2ccccc2CNC(=O)Nc2cc(C(C)(C)C)nn2-c2ccc(O)c(Cl)c2)c(Cl)c1=O (stereo unspecified) |
| 211 | CCNC(=S)NS(=O)(=O)c1cc2c(cc1OC)OC(C)(C)C(NC(=O)c1cc(F)ccc1OC)C2 (stereo unspecified) |

| melting point [°C] | SMILES |
| --- | --- |
| 163 to 165 | COc1cccc(S(=O)(=O)N2C3CCC2CN(CC(=O)Nc2ccccc2C)C3)c1 |
| 300 to 301 | O=C1CCCN1CCn1c(=O)[nH]c2ncc(-c3ccc(-c4nc[nH]n4)cc3)nc21 |
| 68 to 70 | CCC(C)c1cc(C=O)c(O)c(S(C)(=O)=O)c1 (stereo unspecified) |
| 175 to 178 | Cc1c(NC(=O)c2ccc(-c3ccc(OC(F)(F)F)cc3)cc2F)ccc2cc(CN3CCCC3)cnc12 |
| 222 to 224 | O=C(Cc1ccccc1)Nc1cc(-c2ccc(Cl)cc2)[nH]n1 |
| 270 | Nc1cc(F)ccc1C(=O)C1CCN(CCn2c(=O)[nH]c3ccccc3c2=O)CC1 |
| 232 to 234 | Cc1cccc2ncc(-c3nnnn3C)c(=O)n12 |
| 101 to 102 | CCCCCP(=O)(CC(=O)OC)OCc1ccc(-c2ccccc2C(=O)O)cc1 (stereo unspecified) |
| 70 to 71 | OCCCc1oc(Sc2ccccn2)nc1-c1ccc(Cl)cc1 |
| 84 to 86 | CCOC(=O)C1=C(C)NC(COC(C)=O)=C(C(=O)OCC)C1c1ccccc1OC (stereo unspecified) |
| 131 to 140 | O=C(O)Cc1ccc(NC(=O)C(COC2CCCCO2)NS(=O)(=O)c2ccc(Cl)c([N+](=O)[O-])c2)cc1 (racemic) |
| 205 | CC(C)CNS(=O)(=O)c1cccc(NC(=O)c2cnn3c(C(F)(F)F)cc(-c4ccc(C(F)(F)F)cc4)nc23)c1 |
| 148 to 149 | CC(C)(C)C(=O)Nc1c(F)cc(F)cc1C#Cc1ccc(SC2CCOCC2)cc1 |
| 201 to 203 | O=c1c(CCCl)n[nH]c2ccccc12 |
| 253 | COc1ccc2c(c1)C(=O)c1ccc(-c3nnn[nH]3)cc1S2(=O)=O |
| 117 to 119 | CCOC(=O)c1cnc(Cc2ccc(OC)c(OC)c2)c2cc(OC)c(OC)cc12 |
| 68 to 70 | CSc1ccc(C(=O)CC(=O)C(F)F)cc1 |
| 136 to 138 | CCC(Oc1ccccc1F)C(=O)OC1CC(O)C=C2C=CC(C)C(CCC3CC(O)CC(=O)O3)C21 (mixture of isomers) |
| 105 to 106 | CCOC(=O)c1cc2c(nc1C)CCCC2 |
| 116 to 118 | COc1ccc(Sc2nc(-c3ccccc3)cnc2N)cc1 |
| 148 to 149 | CCCCC(=O)N(Cc1ccc(-c2ccccc2-c2nc(=O)s[nH]2)cc1)c1sccc1C(=O)O |
| 102 | O=C1C2=C(CCCC2)C(=O)N1c1ccc(Br)cc1F |
| 143 to 145 | COc1ccc2c(c1OC(C)=O)NC(OC)C1CCCN1C2=O (stereo unspecified) |
| 214 to 215 | N#Cc1cnc2cnc(F)cc2c1O |

| melting point [°C] | SMILES |
| --- | --- |
| 239 | CCOC(=O)c1c(N2CCN(C(=O)c3cccs3)CC2)c2cccnc2[nH]c1=O |
| 130 | Cc1ccc(S(=O)(=O)N2[C@@H](C(N)=O)CC[C@H]2c2ccccc2)cc1 (racemic) |
| 82 | CCCN(C(=S)NC(=O)c1ccccc1)C(CO)c1ccccc1 (stereo unspecified) |
| 110 to 111 | COC(=O)Cc1cccc(OC)c1OCCCc1cc(O)nn1Cc1ccc(Cl)cc1Cl |
| 158 | O=C1c2nccc(-c3ccccc3NC(=O)C(F)(F)F)c2C(=O)c2c([N+](=O)[O-])ccnc21 |
| 153 to 154 | ON=C1OC2C=CC1CC2 (stereo unspecified) |
| 123 to 125 | CCc1nnc(NC(=O)C(c2ccccc2)c2ccccc2)o1 |
| 168 to 170 | CC(CN(C)C)Nc1ccnc2cc(Cl)ccc12 (racemic) |
| 136 to 138 | OCc1csc(N(c2ccccc2)c2ccccc2)n1 |
| > 250 | Nc1cc(=O)[nH]c2ccccc12 |
| 217 to 220 | Fc1nc(NCc2ccccn2)c2nc[nH]c2n1 |
| 62 to 63.5 | Oc1cc2cc(C3CCCC3)sc2c(Cl)c1Cl |
| 214 to 216 | CCc1cc(C(C)=O)c(O)cc1OCc1ccc(C(=O)O)c(O)c1 |
| 98 to 99 | CSc1cc(C)c(O)cc1C |
| > 250 | O=C(O)C1=Cc2cc3occ(-c4ccc(Br)cc4)c3cc2OC1C(F)(F)F (stereo unspecified) |
| > 250 | N#Cc1c(O)[nH]c2cccnc12 |
| 230 to 232 | NNC(=O)c1cc(N2CCN(c3ccc([N+](=O)[O-])cc3)CC2)ccn1 |
| 169 to 171 | CCC(=O)N[C@@H](C)C(=O)N1CCC[C@H]1C(=O)O |
| 74 to 75 | CCCCOc1nc2cccc(C(=O)OC)c2n1Cc1ccc(-c2ccccc2C#N)cc1 |
| > 250 | Cc1cccc(-c2cc(F)c3c(c2)CC(CN)O3)c1 (stereo unspecified) |
| 109 to 112 | COc1cc2c(c(Cl)c1Cl)C(=O)C(C)(C1CCCC1)C2 (stereo unspecified) |
| 144 to 145 | Cc1cc(NC(=O)OC(C)(C)C)c(C)c2c1OC(C)(C)C2=O |

| SMILES | melting point [°C] |
| --- | --- |
| CC1(C)OCc2cc(Cc3c[nH]cn3)ccc2O1 | 150 to 170 |
| COC(=O)c1nc(C)n2c1CNC(c1ccccc1)c1cc(Cl)ccc1-2 (stereo unspecified) | 233 to 235 |
| COCN1C(=O)CN=C(c2ccccc2)c2cc(NO)ccc21 | 168 to 170 |
| NC1N=C(c2ccccc2)c2ccccc2NC1=O (stereo unspecified) | 196 to 197 |
| O=C1CC(c2cccnc2)=NN1c1ccc(O)cc1 | > 250 |
| CCCCCC1=CC(=O)C2=C(OC(C)(C)c3ccc(C)cc32)C1=O | 53 to 54 |
| COC(=O)C(O)C1(O)CCC2C3CCC4=CC(=O)C=CC4(C)C3C(O)CC21C (stereo unspecified) | 171 to 173 |
